# From ChEMBL document CHEMBL4396937, “Synthesis of new triazole fused imidazo[2,1-b]thiazole hybrids with emphasis on Staphylococcus aureus virulence factors” (Bioorg Med Chem Lett, 2019)
# The source made the active and inactive calls. The rule behind the calls is not given here.
# What was measured:
# Bacillus subtilis [1] = test: Antibacterial activity against Bacillus subtilis MTCC 121 assessed as reduction in bacterial growth incubated for 24 hrs by agar well diffusion method; format: functional; conditions: MTCC 121, 24 h
# Staphylococcus aureus [2] = test: Antibacterial activity against Staphylococcus aureus MLS-16 MTCC 2940 assessed as reduction in bacterial growth incubated for 24 hrs by agar well diffusion method; format: functional; conditions: MLS-16 MTCC 2940, 24 h
# Micrococcus luteus [3] = test: Antibacterial activity against Micrococcus luteus MTCC 2470 assessed as reduction in bacterial growth incubated for 24 hrs by agar well diffusion method; format: functional; conditions: MTCC 2470, 24 h
# Staphylococcus aureus [4] = test: Antibacterial activity against Staphylococcus aureus MTCC 96 assessed as reduction in bacterial growth incubated for 24 hrs by agar well diffusion method; format: functional; conditions: MTCC 96, 24 h
# Escherichia coli [5] = test: Antibacterial activity against Escherichia coli MTCC 739 assessed as reduction in bacterial growth incubated for 24 hrs by agar well diffusion method; format: functional; conditions: MTCC 739, 24 h
# Pseudomonas aeruginosa [6] = test: Antibacterial activity against Pseudomonas aeruginosa MTCC 2453 assessed as reduction in bacterial growth incubated for 24 hrs by agar well diffusion method; format: functional; conditions: MTCC 2453, 24 h
# Raoultella planticola [7] = test: Antibacterial activity against Klebsiella planticola MTCC 530 assessed as reduction in bacterial growth incubated for 24 hrs by agar well diffusion method; format: functional; conditions: MTCC 530, 24 h
# Candida albicans [8] = test: Antifungal activity against Candida albicans MTCC 3017 assessed as reduction in fungal growth incubated for 24 hrs by agar well diffusion method; format: functional; conditions: MTCC 3017, 24 h
# Bacillus subtilis [9] = test: Bactericidal activity against Bacillus subtilis MTCC 121 assessed as reduction in bacterial survival incubated for 24 hrs followed by transfer of microbial suspension to agar plates and measured at 24 hrs post transfer by agar well diffusion method; format: functional; conditions: MTCC 121, 24 h
# Staphylococcus aureus [10] = test: Bactericidal activity against Staphylococcus aureus MLS-16 MTCC 2940 assessed as reduction in bacterial survival incubated for 24 hrs followed by transfer of microbial suspension to agar plates and measured at 24 hrs post transfer by agar well diffusion method; format: functional; conditions: MLS-16 MTCC 2940, 24 h
# Micrococcus luteus [11] = test: Bactericidal activity against Micrococcus luteus MTCC 2470 assessed as reduction in bacterial survival incubated for 24 hrs followed by transfer of microbial suspension to agar plates and measured at 24 hrs post transfer by agar well diffusion method; format: functional; conditions: MTCC 2470, 24 h
# Staphylococcus aureus [12] = test: Bactericidal activity against Staphylococcus aureus MTCC 96 assessed as reduction in bacterial survival incubated for 24 hrs followed by transfer of microbial suspension to agar plates and measured at 24 hrs post transfer by agar well diffusion method; format: functional; conditions: MTCC 96, 24 h
# Escherichia coli [13] = test: Bactericidal activity against Escherichia coli MTCC 739 assessed as reduction in bacterial survival incubated for 24 hrs followed by transfer of microbial suspension to agar plates and measured at 24 hrs post transfer by agar well diffusion method; format: functional; conditions: MTCC 739, 24 h
# Pseudomonas aeruginosa [14] = test: Bactericidal activity against Pseudomonas aeruginosa MTCC 2453 assessed as reduction in bacterial survival incubated for 24 hrs followed by transfer of microbial suspension to agar plates and measured at 24 hrs post transfer by agar well diffusion method; format: functional; conditions: MTCC 2453, 24 h
# Raoultella planticola [15] = test: Bactericidal activity against Klebsiella planticola MTCC 530 assessed as reduction in bacterial survival incubated for 24 hrs followed by transfer of microbial suspension to agar plates and measured at 24 hrs post transfer by agar well diffusion method; format: functional; conditions: MTCC 530, 24 h
# Candida albicans [16] = test: Fungicidal activity against Candida albicans MTCC 3017 assessed as reduction in fungal survival incubated for 24 hrs followed by transfer of microbial suspension to agar plates and measured at 24 hrs post transfer by agar well diffusion method; format: functional; conditions: MTCC 3017, 24 h
# Bacillus subtilis [17] = test: Antibiofilm activity against Bacillus subtilis MTCC 121 assessed as inhibition of biofilm formation by crystal violet staining-based microtitre plate assay; format: functional, organism-based
# Staphylococcus aureus [18] = test: Antibiofilm activity against Staphylococcus aureus MLS-16 MTCC 2940 assessed as inhibition of biofilm formation by crystal violet staining-based microtitre plate assay; format: functional, organism-based
# Micrococcus luteus [19] = test: Antibiofilm activity against Micrococcus luteus MTCC 2470 assessed as inhibition of biofilm formation by crystal violet staining-based microtitre plate assay; format: functional, organism-based
# Staphylococcus aureus [20] = test: Antibiofilm activity against Staphylococcus aureus MTCC 96 assessed as inhibition of biofilm formation by crystal violet staining-based microtitre plate assay; format: functional, organism-based
# Escherichia coli [21] = test: Antibiofilm activity against Escherichia coli MTCC 739 assessed as inhibition of biofilm formation by crystal violet staining-based microtitre plate assay; format: functional, organism-based
# Pseudomonas aeruginosa [22] = test: Antibiofilm activity against Pseudomonas aeruginosa MTCC 2453 assessed as inhibition of biofilm formation by crystal violet staining-based microtitre plate assay; format: functional, organism-based
# Raoultella planticola [23] = test: Antibiofilm activity against Klebsiella planticola MTCC 530 assessed as inhibition of biofilm formation by crystal violet staining-based microtitre plate assay; format: functional, organism-based
# MRC5 = test: Cytotoxicity against human MRC5 cells assessed as reduction in cell viability incubated for 48 hrs by MTT assay; format: cell-based; conditions: MRC5, 48 h
# Staphylococcus aureus [24] = test: Antibiofilm activity against Staphylococcus aureus MTCC 96 assessed as disruption and cell damage at bactericidal MBC incubated for 48 hrs by FE-SEM analysis; format: functional, organism-based
# Escherichia coli [25] = test: Antibiofilm activity against Escherichia coli MTCC 739 assessed as inhibition of biofilm formation incubated for 48 hrs in presence of Staphylococcus aureus MTCC 96 by FE-SEM analysis; format: functional, organism-based; conditions: MTCC 739, 48 h
# Escherichia coli [26] = test: Antibiofilm activity against Escherichia coli MTCC 739 assessed as cell lysis with damaged membrane at bactericidal MBC incubated for 48 hrs by FE-SEM analysis; format: functional, organism-based
# Staphylococcus aureus [27] = test: Antibiofilm activity against Staphylococcus aureus MTCC 96 assessed as inhibition of biofilm formation incubated for 48 hrs in presence of Escherichia coli MTCC 739 by FE-SEM analysis; format: functional, organism-based; conditions: MTCC 96, 48 h
# Staphylococcus aureus [28] = test: Antibiofilm activity against Staphylococcus aureus MTCC 96 assessed as disruption of biofilm matrix with individual cell lysis at bactericidal MBC incubated for 48 hrs in presence of Escherichia coli MTCC 739 by FE-SEM analysis; format: functional, organism-based
# Escherichia coli [29] = test: Antibiofilm activity against Escherichia coli MTCC 739 assessed as disruption of biofilm matrix with individual cell lysis at bactericidal MBC incubated for 48 hrs in presence of Staphylococcus aureus MTCC 96 by FE-SEM analysis; format: functional, organism-based
MIC (Bacillus subtilis [1]) [µg/mL],MIC (Staphylococcus aureus [2]) [µg/mL],MIC (Micrococcus luteus [3]) [µg/mL],MIC (Staphylococcus aureus [4]) [µg/mL],MIC (Escherichia coli [5]) [µg/mL],MIC (Pseudomonas aeruginosa [6]) [µg/mL],MIC (Candida albicans [8]) [µg/mL],IC50 (Bacillus subtilis [17]) [µg/mL],IC50 (Staphylococcus aureus [18]) [µg/mL],IC50 (Micrococcus luteus [19]) [µg/mL],IC50 (Staphylococcus aureus [20]) [µg/mL],Compound,MIC (Raoultella planticola [7]) [µg/mL],MBC (Bacillus subtilis [9]) [µg/mL],MBC (Staphylococcus aureus [10]) [µg/mL],MBC (Micrococcus luteus [11]) [µg/mL],MBC (Staphylococcus aureus [12]) [µg/mL],MBC (Escherichia coli [13]) [µg/mL],MBC (Pseudomonas aeruginosa [14]) [µg/mL],MBC (Raoultella planticola [15]) [µg/mL],MFC (Candida albicans [16]) [µg/mL],further results
3.9,1.9,3.9,1.9,1.9,3.9,7.8,11.4,10.6,11.2,9.8,O=C(c1cn(-c2ccc(Cl)cc2)nn1)c1c(-c2ccccc2)nc2sccn12,3.9,7.8,3.9,7.8,3.9,3.9,7.8,7.8,15.6,IC50 (Escherichia coli [21]): 10.3 µg/mL; IC50 (Pseudomonas aeruginosa [22]): 14.2 µg/mL; IC50 (Raoultella planticola [23]): 14.6 µg/mL; IC50 (MRC5): 36.1 µg/mL; Activity (Staphylococcus aureus [24]): Active; IC50 (Escherichia coli [25]): 14.3 µg/mL; Activity (Escherichia coli [26]): Active; IC50 (Staphylococcus aureus [27]): 14.3 µg/mL; Activity (Staphylococcus aureus [28]): Active; Activity (Escherichia coli [29]): Active
3.9,1.9,3.9,1.9,1.9,3.9,7.8,13.5,12.8,12.3,13.5,O=C(c1cn(-c2ccc(F)cc2Br)nn1)c1c(-c2ccccc2)nc2sccn12,3.9,7.8,3.9,7.8,3.9,3.9,7.8,7.8,15.6,IC50 (Escherichia coli [21]): 18.2 µg/mL; IC50 (Pseudomonas aeruginosa [22]): 18.2 µg/mL; IC50 (Raoultella planticola [23]): 17.3 µg/mL; IC50 (MRC5): 48.2 µg/mL
3.9,7.8,3.9,3.9,3.9,3.9,7.8,13.5,14,16,21.3,O=C(c1cn(-c2ccc(Br)cc2)nn1)c1c(-c2ccc(Cl)cc2)nc2sccn12,3.9,7.8,15.6,7.8,7.8,7.8,7.8,15.6,15.6,IC50 (Escherichia coli [21]): 16.2 µg/mL; IC50 (Pseudomonas aeruginosa [22]): 17.5 µg/mL; IC50 (Raoultella planticola [23]): 20.5 µg/mL; IC50 (MRC5): 37.3 µg/mL
